Measured values from article PMC5465072 (Scientific Reports, 2017).
Entries after “also recorded” stand apart in the source; their conditions may differ. Square brackets hold non-standard residues; d marks the D form. Ends that are not written are not given here. Peptide text beside a SMILES is read from it. Phe(4-Cl) = N[C@@H](Cc1ccc(Cl)cc1)C(=O)O

Experiments:
[1] = target: His6-PA488–735 / GST-CMG2_38–218 interaction (UniProt P13423+P58335); assay: biochemical; parameters: species or system Bacillus anthracis PA / human CMG2
[2] = target: His6-PA596–735 / GST-CMG2_38–218 interaction (Homo sapiens, UniProt P58335); assay: biochemical; assay type: biochemical, Bacillus anthracis PA / human CMG2
[3] = target: CMG2_38–218 (Homo sapiens, UniProt P58335); assay: biochemical; assay type: binding
[4] = system: J774 cells; assay type: cell-based

His6-PA488–735 / GST-CMG2_38–218 interaction, sequence (P13423 517-764 limits assumed): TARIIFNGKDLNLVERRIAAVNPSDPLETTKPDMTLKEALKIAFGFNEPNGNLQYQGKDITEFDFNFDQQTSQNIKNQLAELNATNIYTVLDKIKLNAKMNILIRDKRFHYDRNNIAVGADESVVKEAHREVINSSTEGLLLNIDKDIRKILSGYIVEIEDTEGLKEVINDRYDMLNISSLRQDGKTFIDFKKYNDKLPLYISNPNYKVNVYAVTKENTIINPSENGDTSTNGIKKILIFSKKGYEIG
His6-PA488–735 / GST-CMG2_38–218 interaction, sequence (P58335 38-218 limits assumed): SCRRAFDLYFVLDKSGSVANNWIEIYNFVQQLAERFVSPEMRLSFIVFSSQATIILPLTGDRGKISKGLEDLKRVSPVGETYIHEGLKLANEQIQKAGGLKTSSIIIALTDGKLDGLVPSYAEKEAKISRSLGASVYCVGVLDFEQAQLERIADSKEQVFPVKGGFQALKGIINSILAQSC
His6-PA596–735 / GST-CMG2_38–218 interaction, sequence (P58335 38-218 limits assumed): as above
CMG2_38–218, sequence (P58335 38-218): as the sequence (P58335 38-218 limits assumed) above

Compound: H-CMNHAPA-OH [CMNHAPA]
- IC50 [1]: 522 ± 47.8 µM
- fold loss of activity in PA/CMG2 ELISA over the parent peptide CMNHFPA [1]: 10 fold

Compound: FCRTL
- IC50 for disruption of the interaction of His6-PA488–735 and GST-CMG2_38–218 [1]: inactive

Compound: HPCNAMF [HPCNAMF]
- IC50 [1]: 153 ± 9.3 µM
- fold loss of activity in PA/CMG2 ELISA over the parent peptide CMNHFPA [1]: 3 fold

Compound: CLRPT [CLRPT]
- IC50 [1]: 153 ± 2.9 µM

Compound: CLRFT [CLRFT]
- IC50 [1]: 77.1 ± 9.5 µM
- IC50 [2]: 71.3 ± 6.5 µM
- Kd [3]: 30.2 ± 1.2 µM

Compound: CC(C)C[C@H](NC(=O)[C@@H](N)CS)C(=O)N[C@@H](CCCNC(=N)N)C(=O)N[C@@H](Cc1ccc(Cl)cc1)C(=O)N[C@H](C(=O)O)[C@@H](C)O [CLR(4-Cl-F)T] (H-CLR[Phe(4-Cl)]T-OH)
- concentration that protects J774 cells from lethal toxin [4]: ≥ 50 µM

Compound: CMNHFPA [CMNHFPA]
- IC50 [1]: 49.8 ± 2.7 µM
- IC50 for disruption of the interaction of His6-PA596–735 and GST-CMG2_38–218 [2]: not active; also recorded: lost all activity

Compound: (4-Cl-F)CRTL
- protection of J774 cells from lethal toxin [4]: No protective effect; also recorded: no such protection
